Like-named read-outs stand apart in the source and are kept apart here.
Experiments:
S. aureus RN450 = experiment: In Vitro Anti-Bacterial Activity Assay (MIC), gram positive; type: cell-based; settings: Staphylococcus aureus, RN450, 18 h
E. coli mL308 225 = experiment: In Vitro Anti-Bacterial Activity Assay (MIC), gram negative; type: cell-based; settings: Escherichia coli, ML308225, 18 h
[1] = gram positive bacteria, read-out: Antibiotic Activity Gram + (MIC)
[2] = gram negative bacteria, read-out: Antibiotic Activity Gram − (MIC)
[3] = MIC class, Table 3, read-out: Antibiotic Activity Gram +
[4] = MIC class, Table 3, read-out: Antibiotic Activity Gram −
[5] = MIC class, Table 3 (Continued), read-out: Gram+ activity
[6] = MIC class, Table 3 (Continued), read-out: Gram− activity
[7] = read-out: Antibiotic Activity Gram − (MIC)

CN(C)c1cc(CNC(=O)CC(F)(F)F)c(O)c2c1C[C@H]1C[C@H]3[C@H](N(C)C)C(O)=C(C(N)=O)C(=O)[C@@]3(O)C(O)=C1C2=O
MIC (S. aureus RN450; [1]): < 4 µg/mL
MIC (E. coli mL308 225; [2]): < 4 µg/mL

COCCOC(=O)Nc1ccc(-c2ccc(O)c3c2C[C@H]2C[C@H]4[C@H](N(C)C)C(O)=C(C(N)=O)C(=O)[C@@]4(O)C(O)=C2C3=O)cc1 [HH]
MIC (S. aureus RN450; [3]): < 4 µg/mL
MIC (E. coli mL308 225; [4]): > 4 µg/mL

CN(C)Cc1ccc(-c2ccc(O)c3c2C[C@H]2C[C@H]4C(N(C)C)C(O)=C(C(N)=O)C(=O)[C@@]4(O)C(O)=C2C3=O)cc1 (some centres unmarked)
MIC (S. aureus RN450; [5]): < 4 µg/mL
MIC (E. coli mL308 225; [6]): < 4 µg/mL

CN(C)[C@H]1C(O)=C(C(N)=O)C(=O)[C@@]2(O)C(O)=C3C(=O)c4c(O)c(CNCC(C)(C)C)cc(-c5ccoc5)c4C[C@H]3C[C@@H]12 [NP]
MIC (S. aureus RN450; [3]): < 4 µg/mL
MIC (E. coli mL308 225; [4]): < 4 µg/mL

Cc1ccc(/C=C/c2ccc(O)c3c2C[C@H]2C[C@H]4[C@H](N(C)C)C(O)=C(C(N)=O)C(=O)[C@@]4(O)C(O)=C2C3=O)cc1 [drawing 3339]
MIC (S. aureus RN450; [5]): < 4 µg/mL
MIC (E. coli mL308 225; [6]): < 4 µg/mL

CN(C)[C@@H]1C(O)=C(C(N)=O)C(=O)[C@@]2(O)C(O)=C3C(=O)c4c(O)ccc(CNC5CCNCC5)c4C[C@H]3C[C@@H]12 [LD]
MIC (S. aureus RN450; [3]): > 4 µg/mL
MIC (E. coli mL308 225; [4]): > 4 µg/mL

CC(C)c1cccc(-c2ccc(O)c3c2C[C@H]2C[C@H]4[C@H](N(C)C)C(O)=C(C(N)=O)C(=O)[C@@]4(O)C(O)=C2C3=O)c1
MIC (S. aureus RN450; [1]): < 4 µg/mL
MIC (E. coli mL308 225; [2]): < 4 µg/mL

C/C(=N\OC(C)(C)C)c1ccc(O)c2c1C[C@H]1C[C@H]3[C@H](N(C)C)C(O)=C(C(N)=O)C(=O)[C@@]3(O)C(O)=C1C2=O
MIC (S. aureus RN450; [1]): < 4 µg/mL
MIC (E. coli mL308 225; [2]): < 4 µg/mL

CNC(=O)Oc1ccc(-c2ccc(O)c3c2C[C@H]2C[C@H]4[C@H](N(C)C)C(O)=C(C(N)=O)C(=O)[C@@]4(O)C(O)=C2C3=O)cc1
MIC (S. aureus RN450; read-out: Antibiotic Activity Gram + (MIC)): < 4 µg/mL
MIC (E. coli mL308 225; [7]): < 4 µg/mL

CN(C)c1cc(-c2cccs2)c(O)c2c1C[C@H]1C[C@H]3[C@H](N(C)C)C(O)=C(C(N)=O)C(=O)[C@@]3(O)C(O)=C1C2=O [W]
MIC (S. aureus RN450; [3]): < 4 µg/mL
MIC (E. coli mL308 225; [4]): > 4 µg/mL

Cc1ccc(-c2ccc(O)c3c2C[C@H]2C[C@H]4[C@H](N(C)C)C(O)=C(C(N)=O)C(=O)[C@@]4(O)C(O)=C2C3=O)cc1N
MIC (S. aureus RN450; [1]): < 4 µg/mL
MIC (E. coli mL308 225; [2]): < 4 µg/mL

CN(C)[C@@H]1C(O)=C(C(N)=O)C(=O)[C@@]2(O)C(O)=C3C(=O)c4c(O)cccc4/C(=C\c4ccc(F)cc4)[C@H]3[C@H](O)[C@@H]12
MIC (S. aureus RN450; [5]): < 4 µg/mL
MIC (E. coli mL308 225; [6]): < 4 µg/mL

C[C@H]1c2ccc(CNCC(C)(C)C)c(O)c2C(=O)C2=C(O)[C@]3(O)C(=O)C(C(N)=O)=C(O)[C@@H](N(C)C)[C@@H]3[C@@H](O)[C@@H]21 [JG]
MIC (S. aureus RN450; [3]): < 4 µg/mL
MIC (E. coli mL308 225; [4]): < 4 µg/mL

CN(C)[C@@H]1C(O)=C(C(N)=O)C(=O)[C@@]2(O)C(O)=C3C(=O)c4c(O)ccc(-c5ccc(CNCC(F)(F)F)cc5)c4C[C@H]3C[C@@H]12 [drawing 3505]
MIC (S. aureus RN450; [1]): < 4 µg/mL
MIC (E. coli mL308 225; [2]): < 4 µg/mL

CN(C)[C@@H]1C(O)=C(C(N)=O)C(=O)[C@@]2(O)C(O)=C3C(=O)c4c(O)ccc(CN(CC5CC5)CC5CC5)c4C[C@H]3C[C@@H]12 [KC]
MIC (S. aureus RN450; [3]): < 4 µg/mL
MIC (E. coli mL308 225; [4]): < 4 µg/mL

COc1ccc(-c2ccc(O)c3c2C[C@H]2C[C@H]4[C@H](N(C)C)C(O)=C(C(N)=O)C(=O)[C@@]4(O)C(O)=C2C3=O)cc1 [drawing 3310]
MIC (S. aureus RN450; [5]): < 4 µg/mL
MIC (E. coli mL308 225; [6]): < 4 µg/mL

CC(=O)N(Cc1cc(N(C)C)c2c(c1O)C(=O)C1=C(O)[C@]3(O)C(=O)C(C(N)=O)=C(O)[C@@H](N(C)C)[C@@H]3C[C@@H]1C2)CC(C)(C)C
MIC (S. aureus RN450; [1]): > 4 µg/mL
MIC (E. coli mL308 225; [2]): > 4 µg/mL

CN(C)c1cc(CNC(=O)Oc2ccc(Br)cc2)c(O)c2c1C[C@H]1C[C@H]3[C@H](N(C)C)C(O)=C(C(N)=O)C(=O)[C@@]3(O)C(O)=C1C2=O [FH]
MIC (S. aureus RN450; read-out: Antibiotic Activity Gram +): < 4 µg/mL
MIC (E. coli mL308 225; read-out: Antibiotic Activity Gram −): > 4 µg/mL

CN(C)CCNC(=O)c1cccc(-c2ccc(O)c3c2C[C@H]2C[C@H]4[C@H](N(C)C)C(O)=C(C(N)=O)C(=O)[C@@]4(O)C(O)=C2C3=O)c1
MIC (S. aureus RN450; [1]): < 4 µg/mL
MIC (E. coli mL308 225; [2]): > 4 µg/mL

COc1ccc(CNCCF)cc1-c1ccc(O)c2c1C[C@H]1C[C@H]3[C@H](N(C)C)C(O)=C(C(N)=O)C(=O)[C@@]3(O)C(O)=C1C2=O
MIC (S. aureus RN450; [1]): < 4 µg/mL
MIC (E. coli mL308 225; [7]): > 4 µg/mL

COC(=O)c1ccc(O)c2c1C[C@H]1C[C@H]3[C@H](N(C)C)C(O)=C(C(N)=O)C(=O)[C@@]3(O)C(O)=C1C2=O
MIC (S. aureus RN450; [1]): < 4 µg/mL
MIC (E. coli mL308 225; [2]): < 4 µg/mL

CCc1cc(NCC(C)C)c(O)c2c1C[C@H]1C[C@H]3[C@H](N(C)C)C(O)=C(C(N)=O)C(=O)[C@@]3(O)C(O)=C1C2=O
MIC (S. aureus RN450; [1]): < 4 µg/mL
MIC (E. coli mL308 225; [2]): < 4 µg/mL

Reference: US20150141381A1, “TETRACYCLINE COMPOUNDS HAVING TARGET THERAPEUTIC ACTIVITIES” (Paratek Pharmaceuticals, Inc., priority 2001, published 2015)
